Assay [1] concerns S. oneidensis biofilms. The assay is described as follows: Stop-of-flow-induced detachment of biofilms in hydrodynamic flow chamber (CLSM, COMSTAT). Type of assay: cell-based, Shewanella oneidensis MR-1. As to the method: Transcription is not required for the oxygen starvation-induced detachment. To directly test whether transcription is required for detachment upon rapid decrease in molecular oxygen concentration, we grew biofilms of S. oneidensis in LM medium for 12 h, and subsequently switched the medium to a LM medium amended with 10 μg/ml rifampicin for 10 or 40 minutes, respectively. After that time period, the medium flow was stopped to induce detachment.
External addition of c-di-GMP reversibly prevents biofilm detachment. […] We, therefore, predicted that amending the flow through medium of a biofilm in a hydrodynamic system with c-di-GMP should prevent the induction of detachment after applying a stop-of-flow. To test this hypothesis, biofilms of wild type S. oneidensis were grown in LM medium. […] After 30 min, the flow was stopped to induce detachment and the non-detached biomass was quantified. […]
Microscopic visualization of and image acquisition from biofilms took place at the Stanford Biofilm Research Center using an upright Zeiss LSM510 Confocal Laser Scanning Microscope (Carl Zeiss, Jena, Germany) equipped with the following objectives: 10×/0.3 Plan-Neofluar, 20×/0.5W Achroplan, and 40×/1.2W C-Apochromat. […] Biofilm parameters, such as biomass, and average biofilm thickness were quantified with the program COMSTAT (Heydorn et al., 2000).

In assay [2] the test system is S. oneidensis strain AS129 biofilm cells (IPTG inducible gfp). The assay can be described thus: Transcription test in biofilm cells: IPTG-inducible gfp, GFP fluorescence by CLSM. The conditions noted are these: 10 mM IPTG in flow-through medium; after 1 hour. Type of assay: cell-based, Shewanella oneidensis. The protocol: In order to assure that rifampicin indeed inhibited transcription in biofilm cells under those conditions, we designed an experiment to test transcription in biofilm cells. Tester cells were S. oneidensis cells tagged with an IPTG inducible gfp under control of Pt, which is repressed by LacIQ. […] Upon addition of 10 mM ITPG to the flow-through-medium, the induction of GFP in biofilm cells was readily observed by CLSM throughout the entire biofilm and quantified. This assay is very sensitive, and after 1 hour, about 20% of the maximal inducible GFP fluorescence was observed.

As to `Nc1nc2c(ncn2[C@@H]2O[C@@H]3COP(=O)(O)O[C@H]4[C@@H](O)[C@H](n5cnc6c(=O)[nH]c(N)nc65)O[C@@H]4COP(=O)(O)O[C@H]3[C@H]2O)c(=O)[nH]1` [c-di-GMP, cyclic-bis(3′,5′)guanylic acid], the “detachment after stop-of-flow following removal of c-di-GMP” value in assay [1] (flow resumed with LM devoid of c-di-GMP, 2 h incubation, then flow stopped) is on record as “the biofilm still detached”. The detachment after stop-of-flow result in assay [1] (wild type biofilm 12 h in LM, medium amended with 5 mM c-di-GMP, flow stopped after 30 min) was “no detachment was observed”. As to `CC(C)S[C@@H]1O[C@H](CO)[C@H](O)[C@H](O)[C@H]1O` [IPTG, isopropyl-D-D-thiogalactopyranosid], the “GFP fluorescence, share of the maximal inducible GFP fluorescence” value in assay [2] was “about 20%”.

Source of the values: US20090012038A1, “Methods for microbial biofilm destruction and interference with microbial cellular physiology” (priority 2004, published 2009).
